Data: patent US7459441B2, “Remedies for dry eye and diseases associated with dry eye” (Senju Pharmaceutical Co., Ltd., priority 2001, dated 2008)
Where no end group is shown, it is not given here.

Experiments:
[1] = test system: isolated lacrimal gland; experiment: Promotion of protein secretion from isolated lacrimal gland; set-up: species or system rabbit; details: 10^-4 M, treating time 0 to 40 minutes, n=5, Dunnett's test (FIG. 1)
Description: An isolated lacimal gland of a rabbit was treated with VIP, or Peptide 5 or 15, and the pharmacological effect of these peptides on increase in an amount of secreted protein was studied.
a) Purified water was added to sodium chloride (137.92 g), potassium chloride (7.01 g), calcium chloride-dihydrate (3.53 g) and magnesium chloride.hexahydrate (1.2 g) and the mixture was made up to a total volume of 1000 mL (Solution 1). Separately, purified water was added to potassium dihydrogen phosphate (8.17 g) and the mixture was made up to a total volume of 500 mL (Solution 2). Solution 1 (50 mL) and Solution 2 (10 mL) were added to 900 mL of purified water, 2.07 g of glucose and 2.1 g of […] were dissolved therein, a total amount was adjusted to 1000 mL (pH about 7.4) to obtain an incubation medium. The incubation medium was bubbled with mixed gas containing 95% oxygen and 5% carbon dioxide.
b) VIP, Peptide 5 or Peptide 15 was dissolved in the incubation medium at a concentration of 10^−4 M to obtain a test solution. […]
a) The piece specimen in the steady state was used, the incubation medium was exchanged with 0.5 mL of a fresh incubation medium, followed by incubation at 37° C. for 20 minutes. This incubation medium was collected, a protein staining reagent (DC Protein assay reagent, Bio Rad) was added thereto, and an amount of protein was measured and expressed as an amount of secreted protein per mg of wet weight. […]
b) The incubation medium of the piece specimen after incubation in a) was exchanged with 0.5 mL of a test solution, and the solution was exchanged and collected at 20 minutes intervals totally five times. A protein staining reagent was added to the collected solution, and an amount of protein was measured. For a piece specimen in a control group, the incubation medium was exchanged similarly, and an amount of protein was measured.

[2] = test system: eyes of a Japanese white rabbit; experiment: Lacrimal secretion promotion activity of eye drops (2), Schirmer test with time; format: in vivo; details: for AUC0-120 min, accumulated value of increment of amount of lacrimal secretion after application / increment of amount of lacrimal secretion vs control group / AUC value compared with control group (significance): 0.1 w/v %; for AUC0-120 min, accumulated value of increment of amount of lacrimal secretion after application: 50 μL once to eyes, n = 8, average ± standard error; for increment of amount of lacrimal secretion vs control group: 10 minutes after the administration, n=8 (FIG. 2); for AUC value compared with control group (significance): 120 minutes after the administration, Dunnett-type multiple comparison test
Description: In the same manner as that of Test Example 4, Peptide 5 was applied, and an amount of lacrimal secretion was measured. In this test, an amount of lacrimal secretion was measured with time, and the effect was compared with that of VIP.
Preparation of a solution was performed in the same manner as that of Test Example 4, and VIP and Peptide 5 were dissolved in the vehicle at a concentration of 0.1 w/v %, to prepare a test solution.
[…] Measurement of an amount of lacrimal secretion was performed in the same manner as that of Test Example 4.

[3] = Digestion test with bronchoalveolar lavage fluid (BALF); format: in vitro ADME; details: rat BALF, 90 minutes; for remaining at 1.5 h, 0.1 mg/mL: male, SD, bronchoalveolar lavage fluid (BALF), pH 7.4, 37° C., read-out: remaining rate (undegraded peptide by HPLC)
Description: The effect of highly basified Peptide 5 on digestion with bronchoalveolar lavage fluid was studied.
VIP and Peptide 5 were dissolved (1.1 mg/mL) in a 0.2% Tris-HCl buffer (pH 7.4), and bronchoalveolar lavage fluid (BALF) was added thereto. BALF was obtained by pouring 5 mL of a physiological saline into a trachea of a 8 to 9 week old normal SD male rat (about 350 g) under anesthesia, and recovering the saline, and repeating this procedure totally three times. To 0.5 mL of BALF was added 0.05 mL of a sample solution and the mixture was reacted at 37° C. for 90 minutes, and thereafter an amount of undegraded peptide was measured by HPLC.

[4] = Trypsin digestion test in the presence of chondroitin sulfate; format: in vitro ADME; details: 0.5 mU trypsin, pH 7.5, 37° C., 180 minutes, read-out: remaining rate (undegraded peptide by HPLC)
Description: The effect of highly basified Peptide 5 on digestion with trypsin was studied in the presence of chondroitin sulfate.
To 100 μL of a solution of VIP and Peptide 5 (1 mg/mL) was added 400 μL of a solution of chondroitin sulfate (pH 7.5, 100 μg/mL) in a 0.2 M Tris-HCl buffer (pH 7.5). To 100 μL of this solution was added 0.5 mU of trypsin and the mixture was incubated at 37° C. for 180 minutes. Then, an amount of an undegraded peptide was measured by HPLC.

[5] = test system: eyes of a Japanese white rabbit; experiment: Lacrimal secretion promotion activity of eye drops (1), Schirmer test; format: in vivo; details: for Amount of lacrimal secretion (Schirmer's value), After administration: 10 minutes after single 50 μL application; for Amount of lacrimal secretion (Schirmer's value), After administration / amount of lacrimal secretion after vs before application (paired t test): Peptide 5 0.1 w/v %, Peptide 15 2.0 w/v %; for Amount of lacrimal secretion (Schirmer's value), After administration / Amount of lacrimal secretion (Schirmer's value), Before administration: n = 6, mean ± standard error; for Amount of lacrimal secretion (Schirmer's value), Before administration: baseline before single 50 μL application to eyes; for amount of lacrimal secretion after vs before application (paired t test): single application to eyes
Description: Peptide 5 or 15 was applied to eyes of a rabbit, and an amount of secreted tears was measured, whereby, the pharmacological effect of these peptides on increase in an amount of lacrimal secretion was studied.
Purified water was added to sodium chloride (0.9 g) and sodium dihydrogen phosphate.dihydrate (0.1 g) to make up to a total volume of 100 mL. Further, an appropriate amount of aqueous sodium hydroxide solution was added so as to adjust pH to 7.0 to obtain a vehicle. Peptide 5 was dissolved in the vehicle at a concentration of 0.1 w/v %, and Peptide 15 was dissolved in the vehicle at a concentration of 2.0 w/v %, to prepare test solutions.
Measurement of an amount of tears was performed by a Schirmer test. To eyes of a Japanese white rabbit, 50 μL of a test solution was applied once, and amounts of lacrimal secretion before and 10 minutes after the application to eyes were measured. Five minutes before measurement of an amount of tears, 10 μL of 0.4 w/v % oxybuprocaine hydrochloride (Anelocal™ eye drops, Senju Pharmaceutical Co., Ltd.) was dropped to topically anesthetize. After tears in palpebra interior conjunctival sac were wiped out using a filter paper, and an amount of lacrimal secretion for 1 minute was measured using a Schirmer test paper (Showa Yakuhin Kako Co., Ltd.).

remaining rate as compared with VIP [3]	Compound	rate of protein secretion from isolated lacrimal gland vs control group [1]	AUC0-120 min, accumulated value of increment of amount of lacrimal secretion after application [2]	increment of amount of lacrimal secretion vs control group [2]	AUC value compared with control group (significance) [2]	remaining at 1.5 h, 0.1 mg/mL [3] [%]	remaining at 3 h, 0.2 mg/mL [4] [%]	duration of lacrimal secretion promoting activity compared with VIP ([2]; application to eyes)	Amount of lacrimal secretion (Schirmer's value), After administration [5] [mm/min]	Amount of lacrimal secretion (Schirmer's value), Before administration [5] [mm/min]	amount of lacrimal secretion after vs before application (paired t test) [5]
–	CC[C@H](C)[C@H](NC(=O)[C@H](CO)NC(=O)[C@H](CC(N)=O)NC(=O)[C@H](CC(C)C)NC(=O)[C@H](Cc1ccc(O)cc1)NC(=O)[C@H](CCCCN)NC(=O)[C@H](CCCCN)NC(=O)[C@@H](NC(=O)[C@H](C)NC(=O)[C@H](CCSC)NC(=O)[C@H](CCC(N)=O)NC(=O)[C@H](CCCCN)NC(=O)[C@H](CCCNC(=N)N)NC(=O)[C@H](CC(C)C)NC(=O)[C@H](CCCNC(=N)N)NC(=O)[C@@H](NC(=O)[C@H](Cc1ccc(O)cc1)NC(=O)[C@H](CC(N)=O)NC(=O)[C@H](CC(=O)O)NC(=O)[C@@H](NC(=O)[C@H](Cc1ccccc1)NC(=O)[C@@H](NC(=O)[C@H](C)NC(=O)[C@H](CC(=O)O)NC(=O)[C@H](CO)NC(=O)[C@@H](N)Cc1c[nH]cn1)C(C)C)[C@@H](C)O)[C@@H](C)O)C(C)C)C(=O)N[C@@H](CC(C)C)C(=O)N[C@@H](CC(N)=O)C(N)=O [VIP, Vasoactive Intestinal Peptide, reference compound]	significantly increased	215.0 ± 98.2 ΔSchirmer's value × min.	significantly increased	a significant difference is not recognized	45.5	75	–	–	–	–
about 1.8 fold	HSDAVFTDNYTRLRRQLAVRRYLNSILNGRR-NH2 [Peptide 5]	significantly increased	359.2 ± 85.0 ΔSchirmer's value × min.	significantly increased	significantly higher value	80	89	longer-lasting	8.92 ± 0.45	2.00 ± 0.62	significantly increased
–	Peptide 15: VIP derivative of formula (I): X1 Lys, X2 Leu, X3 Lys, X4 Lys, X5 chemical bond, X6 -NH2 (HSDAVFTDNYTRLRKQLAVKKYL-NH2)	significantly increased	–	–	–	–	–	–	7.75 ± 2.16	3.25 ± 1.20	tendency of increase
